In experiment [1] the test system is HCT-116. Briefly: Antiproliferative activity against human HCT-116 cells assessed as inhibition of cell proliferation measured after 72 hrs by CCK8 assay. The experiment is classed as functional, cell-based. To be noted: HCT-116, 72 h.
Experiment [2] concerns the target Protein cereblon/Kinesin-like protein KIF11 (Homo sapiens, UniProt P52732+Q96SW2). Briefly: PROTAC activity at CRBN/KSP in human HCT-116 cells assessed as induction of KSP degradation at 500 nM incubated for 48 hrs by Western blot analysis relative to control. The experiment is classed as cell-based.
In experiment [3] the test system is HCT-116. The experiment in a line: PROTAC activity at VHL-L/KSP in human HCT-116 cells assessed as induction of KSP degradation at 500 nM incubated for 48 hrs by Western blot analysis relative to control. The experiment is classed as cell-based.

Chain of Protein cereblon/Kinesin-like protein KIF11 (P52732 whole entry, looked up): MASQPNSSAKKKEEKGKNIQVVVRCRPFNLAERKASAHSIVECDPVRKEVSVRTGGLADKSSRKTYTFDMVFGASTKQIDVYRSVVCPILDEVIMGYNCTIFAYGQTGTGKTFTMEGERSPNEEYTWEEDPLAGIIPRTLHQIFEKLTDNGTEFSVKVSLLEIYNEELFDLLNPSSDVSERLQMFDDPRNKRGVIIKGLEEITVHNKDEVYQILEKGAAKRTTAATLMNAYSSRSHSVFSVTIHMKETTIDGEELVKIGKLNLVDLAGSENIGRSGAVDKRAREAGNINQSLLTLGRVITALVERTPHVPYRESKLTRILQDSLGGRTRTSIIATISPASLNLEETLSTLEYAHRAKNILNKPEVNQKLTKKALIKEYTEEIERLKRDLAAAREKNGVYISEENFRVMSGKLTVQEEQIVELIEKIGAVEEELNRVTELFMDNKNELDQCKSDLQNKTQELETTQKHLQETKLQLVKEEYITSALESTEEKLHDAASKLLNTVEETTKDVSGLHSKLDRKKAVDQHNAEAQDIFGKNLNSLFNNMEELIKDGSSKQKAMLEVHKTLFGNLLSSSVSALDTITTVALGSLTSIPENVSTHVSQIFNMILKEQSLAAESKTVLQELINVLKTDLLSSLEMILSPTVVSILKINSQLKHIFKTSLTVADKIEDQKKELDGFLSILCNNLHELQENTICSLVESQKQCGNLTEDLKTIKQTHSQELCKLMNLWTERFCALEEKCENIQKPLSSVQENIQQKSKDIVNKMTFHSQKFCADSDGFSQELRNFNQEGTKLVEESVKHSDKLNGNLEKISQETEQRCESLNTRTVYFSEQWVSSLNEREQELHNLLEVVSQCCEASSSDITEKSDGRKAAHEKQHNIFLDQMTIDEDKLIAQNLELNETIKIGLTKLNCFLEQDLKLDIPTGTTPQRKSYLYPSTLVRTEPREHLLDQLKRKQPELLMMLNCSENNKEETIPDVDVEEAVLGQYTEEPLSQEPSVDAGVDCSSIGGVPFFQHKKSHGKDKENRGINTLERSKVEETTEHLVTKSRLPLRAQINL
Chain of Protein cereblon/Kinesin-like protein KIF11 (Q96SW2 whole entry, looked up): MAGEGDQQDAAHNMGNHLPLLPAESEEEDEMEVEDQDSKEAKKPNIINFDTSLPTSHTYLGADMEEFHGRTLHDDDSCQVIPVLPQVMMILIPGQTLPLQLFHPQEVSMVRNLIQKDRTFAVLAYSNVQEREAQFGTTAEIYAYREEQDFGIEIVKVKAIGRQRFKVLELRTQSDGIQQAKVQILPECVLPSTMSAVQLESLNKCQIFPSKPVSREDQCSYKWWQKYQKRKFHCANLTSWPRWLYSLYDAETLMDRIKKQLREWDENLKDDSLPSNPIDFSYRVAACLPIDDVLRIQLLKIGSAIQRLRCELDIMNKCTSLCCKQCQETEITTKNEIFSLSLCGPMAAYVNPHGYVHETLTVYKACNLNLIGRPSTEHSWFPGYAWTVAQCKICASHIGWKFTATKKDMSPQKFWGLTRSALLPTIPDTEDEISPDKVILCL

Consider `COc1ccc(C2(SC[C@H](N)C(=O)NCCOCCNc3cccc4c3C(=O)N(C3CCC(=O)NC3=O)C4=O)c3ccccc3C=Cc3ccccc32)cc1` (stereo partly drawn), for which the IC50 in experiment [1] came out at 366 nM. Further, the Activity in experiment [2] was 12.8%.
With `COc1ccc(C2(SC[C@H](N)C(=O)NCCCCCCCCCCNC(=O)COc3cccc4c3C(=O)N(C3CCC(=O)NC3=O)C4=O)c3ccccc3C=Cc3ccccc32)cc1` (stereo partly drawn), in experiment [1], the 50% inhibitory concentration (IC50) was found to be 31.6 nM. Further, the Activity in experiment [2] stood at 68.3%.
In the case of `COc1ccc(C2(SC[C@H](N)C(=O)NCCCCCCCCC(=O)N[C@H](C(=O)N3C[C@H](O)C[C@H]3C(=O)NCc3ccc(-c4scnc4C)cc3)C(C)(C)C)c3ccccc3C=Cc3ccccc32)cc1`, the IC50 in experiment [1] was found to be 262 nM. In experiment [3], the Activity turned out to be 18.3%.
Take `COc1ccc(C2(SC[C@H](N)C(=O)NCCCCCNC(=O)COc3cccc4c3C(=O)N(C3CCC(=O)NC3=O)C4=O)c3ccccc3C=Cc3ccccc32)cc1` (stereo partly drawn): the IC50 in experiment [1] amounted to 66.8 nM. Moreover, the Activity in experiment [2] was found to be 46.6%.
In the same order, the values of `COc1ccc(C2(SC[C@H](N)C(=O)NCCCCCCNc3cccc4c3C(=O)N(C3CCC(=O)NC3=O)C4=O)c3ccccc3C=Cc3ccccc32)cc1` (stereo partly drawn) are 93.4 nM and 42.3%.
Consider `COc1ccc(C2(SC[C@H](N)C(=O)NCCOCCNc3ccc4c(c3)C(=O)N(C3CCC(=O)NC3=O)C4=O)c3ccccc3C=Cc3ccccc32)cc1` (stereo partly drawn), for which the IC50 in experiment [1] was determined as 203 nM. In experiment [2], the Activity was determined as 25.7%.
In the same order, the values of `COc1ccc(C2(SC[C@H](N)C(=O)NCCOCCNC(=O)COc3cccc4c3C(=O)N(C3CCC(=O)NC3=O)C4=O)c3ccccc3C=Cc3ccccc32)cc1` (stereo partly drawn) are 37.4 nM and 60.1%.
Consider `COc1ccc(C2(SC[C@H](N)C(=O)NCCOCCC(=O)N[C@H](C(=O)N3C[C@H](O)C[C@H]3C(=O)NCc3ccc(-c4scnc4C)cc3)C(C)(C)C)c3ccccc3C=Cc3ccccc32)cc1`, for which the half-maximal inhibitory concentration (IC50) in experiment [1] came out at 110 nM. Also, the Activity in experiment [3] came out at 42.2%.
Regarding `COc1ccc(C2(SC[C@H](N)C(=O)NCCNC(=O)COc3cccc4c3C(=O)N(C3CCC(=O)NC3=O)C4=O)c3ccccc3C=Cc3ccccc32)cc1` (stereo partly drawn), the half-inhibitory concentration (IC50) in experiment [1] came out at 313 nM. Further, the Activity in experiment [2] amounted to 18.5%.
For `COc1ccc(C2(SC[C@H](N)C(=O)NCCOCCOCCOCCNc3ccc4c(c3)C(=O)N(C3CCC(=O)NC3=O)C4=O)c3ccccc3C=Cc3ccccc32)cc1` (stereo partly drawn), the IC50 in experiment [1] turned out to be 95.4 nM. Besides, the Activity in experiment [2] was found to be 40.6%.
On to `COc1ccc(C2(SC[C@H](N)C(=O)NCCOCCOCCNc3ccc4c(c3)C(=O)N(C3CCC(=O)NC3=O)C4=O)c3ccccc3C=Cc3ccccc32)cc1` (stereo partly drawn), for which the half-inhibitory concentration (IC50) in experiment [1] turned out to be 235 nM. For the same compound, in experiment [2], the Activity turned out to be 24.1%.
Regarding `COc1ccc(C2(SC[C@H](N)C(=O)NCCOCCOCCNc3cccc4c3C(=O)N(C3CCC(=O)NC3=O)C4=O)c3ccccc3C=Cc3ccccc32)cc1` (stereo partly drawn), the IC50 in experiment [1] is 184 nM. The Activity in experiment [2] stood at 29.1%.
On to `COc1ccc(C2(SC[C@H](N)C(=O)NCCOCCOCCNC(=O)COc3cccc4c3C(=O)N(C3CCC(=O)NC3=O)C4=O)c3ccccc3C=Cc3ccccc32)cc1` (stereo partly drawn), for which the 50% inhibitory concentration (IC50) in experiment [1] was 42.2 nM. The Activity in experiment [2] is 53.2%.
In the same order, the values of `COc1ccc(C2(SC[C@H](N)C(=O)NCCOCCOCCOCCNc3cccc4c3C(=O)N(C3CCC(=O)NC3=O)C4=O)c3ccccc3C=Cc3ccccc32)cc1` (stereo partly drawn) are 81.3 nM and 43.5%.
For the compound `COc1ccc(C2(SC[C@H](N)C(=O)NCCOCCOCCOCCC(=O)N[C@H](C(=O)N3C[C@H](O)C[C@H]3C(=O)NCc3ccc(-c4scnc4C)cc3)C(C)(C)C)c3ccccc3C=Cc3ccccc32)cc1`, in experiment [1], the 50% inhibitory concentration (IC50) was 165 nM. Moreover, the Activity in experiment [3] was 32.1%.
For the compound `COc1ccc(C2(SC[C@H](N)C(=O)NCCCCC(=O)N[C@H](C(=O)N3C[C@H](O)C[C@H]3C(=O)NCc3ccc(-c4scnc4C)cc3)C(C)(C)C)c3ccccc3C=Cc3ccccc32)cc1`, the half-inhibitory concentration (IC50) in experiment [1] came to 130 nM. In addition, the Activity in experiment [3] amounted to 38.3%.
On to `COc1ccc(C2(SC[C@H](N)C(=O)NCCCCCCNC(=O)COc3cccc4c3C(=O)N(C3CCC(=O)NC3=O)C4=O)c3ccccc3C=Cc3ccccc32)cc1` (stereo partly drawn), for which, in experiment [1], the IC50 worked out at 52.9 nM. Also, the Activity in experiment [2] came to 52.5%.
Consider `COc1ccc(C2(SC[C@H](N)C(=O)NCCCCCCCCCCNc3ccc4c(c3)C(=O)N(C3CCC(=O)NC3=O)C4=O)c3ccccc3C=Cc3ccccc32)cc1` (stereo partly drawn), for which the IC50 in experiment [1] was 51.3 nM. The Activity in experiment [2] came to 53.9%.
Turning to `COc1ccc(C2(SC[C@H](N)C(=O)NCCCCCCCCNc3cccc4c3C(=O)N(C3CCC(=O)NC3=O)C4=O)c3ccccc3C=Cc3ccccc32)cc1` (stereo partly drawn), the IC50 in experiment [1] was 40.8 nM. For the same compound, the Activity in experiment [2] came out at 61.5%.
`COc1ccc(C2(SC[C@H](N)C(=O)NCCCCNc3ccc4c(c3)C(=O)N(C3CCC(=O)NC3=O)C4=O)c3ccccc3C=Cc3ccccc32)cc1` (stereo partly drawn): the IC50 in experiment [1] came to 360 nM. Also, in experiment [2], the Activity amounted to 10.6%.
In the same order, the values of `COc1ccc(C2(SC[C@H](N)C(=O)NCCCNC(=O)COc3cccc4c3C(=O)N(C3CCC(=O)NC3=O)C4=O)c3ccccc3C=Cc3ccccc32)cc1` (stereo partly drawn) are 96.9 nM and 42.1%.
Regarding `COc1ccc(C2(SC[C@H](N)C(=O)NCCCCCCC(=O)N[C@H](C(=O)N3C[C@H](O)C[C@H]3C(=O)NCc3ccc(-c4scnc4C)cc3)C(C)(C)C)c3ccccc3C=Cc3ccccc32)cc1`, the IC50 in experiment [1] is 181 nM. For the same compound, the Activity in experiment [3] is 25.2%.
With `COc1ccc(C2(SC[C@H](N)C(=O)NCCCCNC(=O)COc3cccc4c3C(=O)N(C3CCC(=O)NC3=O)C4=O)c3ccccc3C=Cc3ccccc32)cc1` (stereo partly drawn), in experiment [1], the IC50 worked out at 83.7 nM. For the same compound, the Activity in experiment [2] came out at 43.6%.
In the same order, the values of `COc1ccc(C2(SC[C@H](N)C(=O)NCCCCCCNc3ccc4c(c3)C(=O)N(C3CCC(=O)NC3=O)C4=O)c3ccccc3C=Cc3ccccc32)cc1` (stereo partly drawn) are 145 nM and 35.6%.
In the case of `COc1ccc(C2(SC[C@H](N)C(=O)NCCCCCCCCNc3ccc4c(c3)C(=O)N(C3CCC(=O)NC3=O)C4=O)c3ccccc3C=Cc3ccccc32)cc1` (stereo partly drawn), the concentration for half-maximal inhibition (IC50) in experiment [1] was found to be 53.8 nM. Also, the Activity in experiment [2] was 54.3%.
Take `COc1ccc(C2(SC[C@H](N)C(=O)NCCOCCOCCOCCNC(=O)COc3cccc4c3C(=O)N(C3CCC(=O)NC3=O)C4=O)c3ccccc3C=Cc3ccccc32)cc1` (stereo partly drawn): the half-maximal inhibitory concentration (IC50) in experiment [1] is 206 nM. In addition, in experiment [2], the Activity was 28.3%.
In the same order, the values of `COc1ccc(C2(SC[C@H](N)C(=O)NCCCCNc3cccc4c3C(=O)N(C3CCC(=O)NC3=O)C4=O)c3ccccc3C=Cc3ccccc32)cc1` (stereo partly drawn) are 247 nM and 11.2%.
On to `COc1ccc(C2(SC[C@H](N)C(=O)NCCOCCOCCC(=O)N[C@H](C(=O)N3C[C@H](O)C[C@H]3C(=O)NCc3ccc(-c4scnc4C)cc3)C(C)(C)C)c3ccccc3C=Cc3ccccc32)cc1`, for which the IC50 in experiment [1] came to 158 nM. Besides, the Activity in experiment [3] was found to be 34.5%.
In the case of `COc1ccc(C2(SC[C@H](N)C(=O)NCCCCCCCCCCNc3cccc4c3C(=O)N(C3CCC(=O)NC3=O)C4=O)c3ccccc3C=Cc3ccccc32)cc1` (stereo partly drawn), the IC50 in experiment [1] was determined as 42.3 nM. In addition, the Activity in experiment [2] worked out at 60.1%.

Values taken from ChEMBL document CHEMBL6096664, “Discovery of novel KSP-targeting PROTACs with potent antitumor effects in vitro and in vivo” (Eur J Med Chem, 2025).
